# Data from ChEMBL document CHEMBL5727720, “Bruton's tyrosine kinase inhibitors” (2020).
# Biological target: Tyrosine-protein kinase BTK (Homo sapiens, UniProt Q06187)
# Assay: Kinase Assay: Measurements were performed in a reaction volume of 15 μL using 384-well assay plates. Kinase enzyme, inhibitor, ATP and 1 μM peptide substrate were incubated in a reaction buffer compose of Hepes 50 mM (pH7.0), NaN3 0.02%, BSA 0.01%, Orthocanadate 0.1 mM. After one hour, the kinase reaction was quenched by the addition of […] antibody and XL-665 in 1×Detection buffer containing 60 mM EDTA (Cisbio), and the mixture was allowed to incubate for one hour. The HTRF signal was measured on a multimode plate reader (EnVision® Multilabel Reader, Perkin Elmer) with an excitation wavelength (λEx) of 330 nm and detection wavelengths (λEm) of 615 and 665 nm. Activity was determined by the ratio of the fluorescence at 665 nm to that at 615 nm. For each compound, enzyme activity as measured at various concentrations of compound, Negative control reactions were performed in the absence of inhibitor in two replicates and eight no enzyme controls.
# Sequence of Tyrosine-protein kinase BTK (Q06187 whole entry): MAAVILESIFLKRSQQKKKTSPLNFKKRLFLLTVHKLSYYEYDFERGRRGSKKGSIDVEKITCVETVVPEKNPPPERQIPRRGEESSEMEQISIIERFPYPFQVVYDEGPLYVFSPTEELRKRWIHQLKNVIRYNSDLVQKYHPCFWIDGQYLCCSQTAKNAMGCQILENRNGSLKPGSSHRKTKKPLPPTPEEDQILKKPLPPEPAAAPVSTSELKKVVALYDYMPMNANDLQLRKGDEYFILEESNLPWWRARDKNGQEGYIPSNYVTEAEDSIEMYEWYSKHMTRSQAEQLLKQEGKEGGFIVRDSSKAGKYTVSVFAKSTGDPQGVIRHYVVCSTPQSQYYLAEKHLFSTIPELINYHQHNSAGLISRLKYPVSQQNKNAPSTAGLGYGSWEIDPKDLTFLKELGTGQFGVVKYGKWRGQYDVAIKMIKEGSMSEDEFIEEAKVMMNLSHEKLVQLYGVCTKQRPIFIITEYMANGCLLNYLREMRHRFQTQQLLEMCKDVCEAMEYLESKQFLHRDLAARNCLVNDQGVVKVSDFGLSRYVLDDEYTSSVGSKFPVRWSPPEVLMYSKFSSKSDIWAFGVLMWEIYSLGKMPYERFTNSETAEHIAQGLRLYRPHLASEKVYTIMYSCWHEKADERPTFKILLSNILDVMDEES
row,Structure (SMILES),IC50 [nM]
1,C=CC(=O)N1CCC[C@@H](n2nc(-c3ccc(Oc4cccc(OC)c4Cl)cc3)c3cncc(OC4CCOC4)c32)C1 (some centres not stated),< 10
2,C=CC(=O)N1CCC[C@@H](n2nc(-c3ccc(Oc4cccc(OC)c4Cl)cc3)c3cncc(OCCC)c32)C1,< 10
3,C=CC(=O)N1CC[C@@H](n2nc(-c3ccc(Oc4cccc(OC)c4Cl)cc3)c3cncc(OCC)c32)C1,< 10
4,C=CC(=O)N1CCC[C@@H](n2nc(-c3ccc(Oc4cccc(OC)c4Cl)cc3)c3cncc(OC(C)C)c32)C1,< 10
5,C=CC(=O)N1CCC[C@@H](n2nc(-c3ccc(Oc4cccc(OC)c4Cl)cc3)c3cncc(OCCCC)c32)C1,< 10

# More lines, now with the values ahead:
row,IC50 [nM],Structure (SMILES)
1,< 10,C=CC(=O)N1CCC[C@@H](n2nc(-c3ccc(Oc4cccc(OC)c4Cl)cc3)c3cncc(OCC)c32)C1
2,< 10,C=CC(=O)N1CCC[C@@H](n2nc(-c3ccc(Oc4cccc(OC)c4Cl)cc3)c3cncc(OC)c32)C1
